Reference: patent US20230158006A1, “USE OF DIRECT THROMBIN INHIBITORS IN THE TREATMENT OF NEURODEGENERATIVE DISEASES” (priority 2020, published 2023)
“Also recorded” adds a separate entry of the source.

Tests used:
TNFa, IL-6, IL-8, MMPs = experiment: Production of inflammatory proteins from endothelial cells in AD models
[1] = system: HIF-1a, thrombin, IL-6, MCP-1, MMP2 mRNA; experiment: Real time PCR of brain tissue from AD transgenic mice; assay type: in vivo; conditions: 100 mg/kg daily for 34 weeks
Method: (§1) Administration of thrombin inhibitor to mice and immunofluorescent staining of mice brain sections: Adult wild-type 3×TgAD—LaFerla (control) and 3×TgAD—LaFerla mice were purchased at 8 weeks of age from The Jackson Laboratory (Bar Harbor, Me.). Daily administration of the orally available direct thrombin inhibitor (DTI) dabigatran etexylate (Pradaxa®, Boehringer Ingelheim, Germany) (100 mg/kg) in PBS to AD mice and vehicle to control mice began at 18 weeks of age and continued daily for 34 weeks. DTI was administered in food. To ensure all food, and therefore drug, was consumed while maintaining ad libitum weight, mice were weighed, and food intake monitored daily. All animal procedures were performed in accordance with NIH “Guide for the Care and Use of Laboratory Animals” and Texas Tech University Health Sciences Center Institutional Animal Care and Use Committee (IACUC) guidelines.
(§2) Real-time PCR analysis: RNA from cultured rat brain endothelial cells was prepared using the TRI Reagent RT (Molecular Research Center, Inc., Cincinnati, Ohio), according to manufacturer protocol. […] Fold difference between two samples (relative quantification) was determined by use of the delta-delta method [S1/S2=2−(T1−T2)], where S1 and S2 represent samples 1 and 2, and T1 and T2 represent the threshold cycles of samples 1 and 2, respectively.

[2] = system: HIF-1a, thrombin, IL-6, MCP-1, MMP2; experiment: Immunofluorescence of cerebrovascular expression of HIF-1a and inflammatory proteins in AD transgenic mice; assay type: in vivo; conditions: 100 mg/kg daily for 34 weeks
Method: as §1
Mice were euthanized, and brain tissue fixed with 10% neutral buffered formalin (NBF). The brain was removed and 1 mm blocks of tissue from cerebral cortex were post fixed in 10% NBF for additional 12 h and embedded in paraffin. […] Sections (3 per mouse) were incubated with DAPI solution at room temperature for 25 min and viewed using an Olympus IX71 microscope and quantified with HAMAMATSU imaging software. […]

[3] = system: reactive oxygen species in brain endothelial cell cultures; experiment: ROS levels (DHE) in cultured brain endothelial cells; assay type: cell-based, rat; conditions: for hypoxia-induced increase in ROS generation: 6 h hypoxia, p<0.001; for ROS level, mean signal intensity of DHE stained cells to non-stained cells: DTI 1 nM, mean ± SD
Excerpt: (§3) Culture and hypoxic exposure of rat brain endothelial cells: Brain endothelial cell cultures were obtained from rat brain micro-vessels, as previously described (Diglio et al., 1993). The purity of these cultures was confirmed using antibodies to the endothelial cell surface antigen Factor VIII. Endothelial cells used in this study (passages 8-15) were maintained in Dulbecco's modified Eagle's medium (DMEM, Sigma-Aldrich, St. Louis, Mo.) supplemented with 10% fetal bovine serum (FBS), 1% antibiotic/antimycotic, and 2 mM glutamine. Confluent endothelial cell cultures were washed three times with Hank's balanced salt solution (HBSS, Gibco, Grand Island, N.Y.) and then incubated at 37° C. with serum-free DMEM for 6 h under hypoxic (1% 02) or normoxic (21% 02) conditions.
(§4) Detection of reactive oxygen species in cell culture and mouse brain tissue sections: Brain endothelial cell cultures were grown on coverslips in 24-well plates, incubated at 37° C. in serum free media with or without dabigatran (DTI, 1 nM) and exposed to hypoxic (6 h, 1% 02) or normoxic (21% 02) conditions. Sections from frozen brain (10-20 µm thickness) were placed on coverslips in 24-well plates with 0.5 ml of PBS at room temperature. Brain sections and cell cultures were incubated with 5 pM of dihydroethidium (DH E) fluorescence dye (Life Technologies, Grand Island, N.Y.; D23107) and Hoechst33342 NucBlue® stain (Life Technologies, R37605) for 30 min in the dark at room temperature. DHE is a cell permeable compound which reacts with intracellular ROS to form oxyethidium, which emits a bright red color detectable by fluorescent microscopy. Following two washes with PBS, images were captured immediately using an Olympus IX71 microscope and analyzed using HAMAMATSU imaging software.
Brain endothelial cell cultures were incubated in serum-free media or serum free media plus DTI (1 nM) and exposed to hypoxia (1% 02) or normoxic (21% 02) conditions for 6 h. The cells were incubated for 30 min with 5 pM of Dihydroethidium (DHE, red) fluorescent dye and NucBlue stain (blue). ROS generation was assessed by quantitation of signal intensities of DHE stained cells to non-stained cells. Data represent mean signal intensity of DHE stained cells to non-stained cells±SD from at least 3 separate experiments performed in duplicate. ***p<0.001 vs. Control; a p<0.001 vs. Hypoxia.

reactive oxygen species = experiment: ROS level (DHE) in frontal cortex brain sections of AD transgenic mice; assay type: in vivo; conditions: DTI for 34 weeks, p<0.001 vs untreated AD mice
Method: Administration of thrombin inhibitor to mice and immunofluorescent staining of mice brain sections: Adult wild-type 3×TgAD—LaFerla (control) and 3×TgAD—LaFerla mice were purchased at 8 weeks of age from The Jackson Laboratory (Bar Harbor, Me.). Daily administration of the orally available direct thrombin inhibitor (DTI) dabigatran etexylate (Pradaxa®, Boehringer Ingelheim, Germany) (100 mg/kg) in PBS to AD mice and vehicle to control mice began at 18 weeks of age and continued daily for 34 weeks. DTI was administered in food. To ensure all food, and therefore drug, was consumed while maintaining ad libitum weight, mice were weighed, and food intake monitored daily. […]
as §4, with “Sections from frozen brain (10-20 µm thickness) were placed on coverslips in 24-well plates with 0.5 ml of PBS at room temperature.” left out, “DHE is a cell permeable compound which reacts with intracellular ROS to form oxyethidium, which emits a bright red color detectable by fluorescent microscopy.” left out, “software. […]” for “software.”

[4] = system: HIF-1a, thrombin, IL-6, MCP-1, MMP2 mRNA; experiment: Real-time PCR of inflammatory gene expression in brain endothelial cells exposed to 6 h hypoxia; assay type: cell-based, rat; conditions: 1 nM, p<0.01-0.001, FIG. 1
Excerpt: as §3
as §2, with “respectively. […]” for “respectively.”

brain oxidative stress = experiment: Short treatment of transgenic Tg4510 AD mice, brain oxidative stress; assay type: in vivo; conditions: non-published results
Method: Fifteen-month-old Tg4510 mice (The Jackson Laboratory, Bar Harbor, Me.) treated for one week with vehicle dimethyl sulfoxide (DMSO) (Spectrum Chemicals & Laboratory Products, New Brunswick, N.J.) or Dabigatran (Pradaxa®, Boehringer Ingelheim Pharmaceuticals, Inc., Ridgefield, Conn.) at doses of 100 mg/kg via oral gavage. Wild-type control mice were treated with vehicle for one week. Brains were collected and homogenized and protein expression was evaluated using western blot.

[5] = system: rat brain endothelial cells; experiment: Cell survival by MTT assay, brain endothelial cell cultures exposed to hypoxia or normoxia; assay type: cell-based
Excerpt: as §3
Measurement of cell survival by MTT assay: Cells were washed with phosphate buffer saline (PBS) and incubated with the MTT reagent 3-(4,5-dimethylthiazol-2-yl)-2-5-diphenyl tetrazolium bromide (1:40 dilution) for 5-10 min at 37° C. The cells convert the MTT reagent to formazan which is quantified by colorimetric assay (Cell Titer 95 Aqueous solution cell proliferation assay, Promega, Madison, Wis.). The formazan product was read at 490 nm. The number of control cells, i.e., viable cells not exposed to any treatment, was defined as 100%.
Brain micro-vessel endothelial cell cultures were incubated with the DTI dabigatran (10 pM-100 nM), exposed to hypoxia for 6 h and cell viability measured by MTT assay. There was a modest (19%) but significant (p<0.05) increase in cell survival at 1-10 nM DTI while DTI doses in excess of 100 nM were toxic.

## CCCCCCOC(=O)NC(=N)c1ccc(NCc2nc3cc(C(=O)N(CCC(=O)OCC)c4ccccn4)ccc3n2C)cc1
TNFa, IL-6, IL-8, MMPs
  production of TNFa, IL-6, IL-8, MMPs and other inflammatory proteins from endothelial cells: reducing the production
[1]; p<0.01 to p<0.001, FIG. 3
  RNA levels of HIF-1a, thrombin, IL-6, MCP-1, MMP2 in brain tissue: reduces expression
[1]; p<0.01 to p<0.001, FIG. 3, listed as DTI
  RNA levels of HIF-1a, thrombin, IL-6, MCP-1, MMP2 in brain tissue: decrease in RNA levels
[2]; FIG. 2
  cerebrovascular expression of HIF-1a, thrombin, IL-6, MCP-1, MMP2 proteins: significantly decreases expression
[2]; FIG. 2, listed as DTI
  cerebrovascular expression of HIF-1a, thrombin, IL-6, MCP-1, MMP2 proteins: reduced expression of these proteins
[3]
  hypoxia-induced increase in ROS generation: inhibited
[3]; listed as DTI
  hypoxia-induced increase in ROS generation: blocked
[3]; Control + DTI: normoxic (21% O2) 6 h
  ROS level, mean signal intensity of DHE stained cells to non-stained cells: 0.65±
[3]; Hypoxia + DTI: hypoxia (1% O2) 6 h, p<0.001 vs. Hypoxia
  ROS level, mean signal intensity of DHE stained cells to non-stained cells: 0.92 ± 0.06a
Reactive oxygen species; FIG. 4
  ROS generation (DHE level) in brain sections: inhibited; also recorded: significantly decreases expression
Reactive oxygen species; FIG. 4, listed as DTI
  ROS generation (DHE level) in brain sections: decreased DHE level
[4]
  hypoxia-mediated effects on inflammatory gene expression (HIF-1a, thrombin, IL-6, MCP-1, MMP2 mRNA): reduced hypoxia-mediated effects on inflammatory gene expression
Brain oxidative stress
  brain oxidative stress: lowering brains' oxidative stress
[5]; hypoxia 6 h, 1-10 nM DTI, p<0.05
  increase in cell survival: 19%
[5]; hypoxia 6 h, MTT
  DTI doses toxic to cells: > 100 nM
[5]; normoxic, doses under 100 nM, data not shown
  effect on cell survival under normoxic conditions: did not affect cell survival
